Reference: PubChem BioAssay AID2060509 (Molecular Pharmacology Branch, DTP, NCI, 2025)

Tested on: 485176-168-R4-J1-PDC spheroids with HUVEC/MSC, viability
Assay: Anticancer human tumor 485176-168-R4-J1-PDC patient-derived pancreatic adenocarcinoma cell line growth inhibition [GQUAD]
Conditions: for IC50: curve of first compound; for viability, T/C: stronger effect = lower value
Source text: DNA G-quadruplex Stabilizer Agents in Combinations in Complex Spheroids
A high-throughput screen of multi-cell type tumor spheroids was designed to identify active combinations of DNA G-quadruplex stabilizer agents and targeted small molecules. Complex spheroids include a stromal component modeled by human endothelial cells (HUVEC) and fibroblasts modeled by human mesenchymal stem cells (MSCs). The concentration ranges selected for each drug and investigational agent were based upon clinically achievable concentrations if the clinical Cmax of the agent was known.
Compounds. The drugs and investigational agents: pidnarulex (CX-5461; NSC782164), APTO-253 (NSC789042), BRACO-19 (NSC847499), peposertib (NSC802822), ceralasertib (NSC780249), elimusertib (NSC800525), camonsertib (NSC841442), AZD-1390 (NSC803789), olaparib (NSC753686), talazoparib (NSC767125), ART-558 (NSC835418), sotorasib (NSC818433), MRTX-1133 (NSC836407), SN-38 (NSC673596), topotecan (NSC609699), etoposide (NSC141540), doxorubicin (NSC123127), gemcitabine (NSC613327), 5-fluorouracil (NSC19893), paclitaxel (NSC125973), vemurafenib (NSC761431), panobinostat (NSC761190), R-306465 (JNJ-16241199; NSC773264), adavosertib (NSC754352), TP-3654 (NSC805149), carboplatin (NSC241240), KSQ-4279 (NSC840948), and staurosporine (NSC755774) were obtained from the National Cancer Institute (NCI) Developmental Therapeutics Program Chemical Repository (34). The FDA-approved anticancer drug set is available from the NCI Developmental Therapeutics Program. […] The stock solutions were prepared in dimethyl sulfoxide (DMSO, Sigma-Aldrich, St. Louis, MO, cat. D2650) at 800-fold the tested concentration and stored at -70 degrees C prior to their use. All drugs and investigational agents were tested over a range starting from a high concentration at or near the clinical Cmax and decreasing in half-log increments. If the clinical Cmax for an agent had not been determined, the highest concentration tested was 10 microM.
2.3 Cell Culture. All cells were maintained in an incubator at 37 degrees C and 5% CO2 with 95% humidity. The PDC lines were cultured according to standard operating procedures established by the NCI PDMR. All PDCs were thawed and cultured in Matrigel-coated flasks prepared with a working solution of 1X Ham's F-12 nutrient mix, without supplementation (Invitrogen, cat. 11765054), 100 U/mL penicillin-streptomycin (Invitrogen, cat. 15140122), and 2.5% Matrigel (Corning Inc., cat. 354248) for the first three passages. The 857933-349-R-J2-PDC line was cultured in 6C/Colon 1B media, which includes advanced DMEM/F-12 (Thermo Fisher Scientific, cat. 12634028), 10 mM HEPES (Thermo Fisher Scientific, cat. 15630080), 1X GlutaMAX supplement (Thermo Fisher Scientific, cat. 35050061), 0.1 mg/mL primocin (InvivoGen, cat. ant-pm-2), 10% defined fetal bovine serum, heat inactivated (HyClone Laboratories Inc., cat. SH30070.03HI), 50% L-WRN conditioned media (ATCC, cat. CRL-3276), 1.25 mM N-Acetyl-L-cysteine (Sigma-Aldrich, cat. A9165), 10 mM nicotinamide (Sigma-Aldrich, cat. N0636), 1X B-27 supplement (Thermo Fisher Scientific, cat. 17504044), 1X N-2 supplement (Thermo Fisher Scientific, cat. 17502048), 10 microM Y-27632 dihydrochloride (Tocris Bioscience, cat. 1254), and 50 ng/mL human EGF recombinant protein (Thermo Fisher Scientific, cat. PHG0311). The 485176-168-R4-J1-PDC line was cultured in Panc media, which includes all 6C/Colon 1B media components plus 100 ng/mL human FGF-10 (Thermo Fisher Scientific, cat. 100-26), 500 nM SB-431542 (Selleckchem, cat. S1067), and gastrin (Tocris, cat. 3006).
[…]

[1] = second compound 0.0316 µM, first compound 0.0316 µM
[2] = second compound 0.0316 µM, first compound 0.1 µM
[3] = second compound 0.0316 µM, first compound 0.316 µM
[4] = second compound 0.0316 µM, first compound 1 µM
[5] = second compound 0.0316 µM, first compound 3.16 µM
[6] = second compound 0.0316 µM, first compound 10 µM
[7] = second compound 0.1 µM, first compound 0.0316 µM
[8] = second compound 0.1 µM, first compound 0.1 µM
[9] = second compound 0.1 µM, first compound 0.316 µM
[10] = second compound 0.1 µM, first compound 1 µM
[11] = second compound 0.1 µM, first compound 3.16 µM
[12] = second compound 0.1 µM, first compound 10 µM
[13] = second compound 0.316 µM, first compound 0.0316 µM
[14] = second compound 0.316 µM, first compound 0.1 µM
[15] = second compound 0.316 µM, first compound 0.316 µM
[16] = second compound 0.316 µM, first compound 1 µM
[17] = second compound 0.316 µM, first compound 3.16 µM
[18] = second compound 0.316 µM, first compound 10 µM
[19] = second compound 1 µM, first compound 0.0316 µM
[20] = second compound 1 µM, first compound 0.1 µM
[21] = second compound 1 µM, first compound 0.316 µM
[22] = second compound 1 µM, first compound 1 µM
[23] = second compound 1 µM, first compound 3.16 µM
[24] = second compound 1 µM, first compound 10 µM
[25] = second compound 3.16 µM, first compound 0.0316 µM
[26] = second compound 3.16 µM, first compound 0.1 µM
[27] = second compound 3.16 µM, first compound 0.316 µM
[28] = second compound 3.16 µM, first compound 1 µM
[29] = second compound 3.16 µM, first compound 3.16 µM
[30] = second compound 3.16 µM, first compound 10 µM
[31] = second compound 10 µM, first compound 0.0316 µM
[32] = second compound 10 µM, first compound 0.1 µM
[33] = second compound 10 µM, first compound 0.316 µM
[34] = second compound 10 µM, first compound 1 µM
[35] = second compound 10 µM, first compound 3.16 µM
[36] = second compound 10 µM, first compound 10 µM
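Further: spheroids exposed to compounds for seven days before readout.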
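Wherever viability, T/C is given: percent viability relative to DMSO vehicle control wells as 100%.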

Work on CC(C)n1c(=O)n(C)c2cnc3cc(F)c(-c4ccc(OCCCN5CCCCC5)nc4)cc3c21 + CN(C)c1ccc(Nc2c3ccc(NC(=O)CCN4CCCC4)cc3nc3cc(NC(=O)CCN4CCCC4)ccc23)cc1 yielded an IC50 (second compound 0.0316 µM) of over 10000 nM, an IC50 (second compound 0.1 µM) of over 10000 nM and an IC50 (second compound 0.316 µM) of over 10000 nM. For the same molecule, the IC50 (second compound 1 µM) was over 10000 nM, the IC50 (second compound 3.16 µM) was over 10000 nM and the IC50 (second compound 10 µM) was 5420 nM. The viability, T/C [1] was 89.8%, the viability, T/C [2] was 81.3% and the viability, T/C [3] was 104%. The viability, T/C [4] was 89.7%, the viability, T/C [5] was 93.3% and the viability, T/C [6] was 71.7%. For the same molecule, the viability, T/C [7] was 92.7%, the viability, T/C [8] was 91.1% and the viability, T/C [9] was 104%. For the same molecule, the viability, T/C [10] was 95.7%, the viability, T/C [11] was 94.7% and the viability, T/C [12] was 68.4%. The viability, T/C [13] was 111%, the viability, T/C [14] was 90.4% and the viability, T/C [15] was 94.7%. The viability, T/C [16] was 98.2%, the viability, T/C [17] was 94.5% and the viability, T/C [18] was 82.1%. For the same molecule, the viability, T/C [19] was 111%, the viability, T/C [20] was 95.9% and the viability, T/C [21] was 80.6%. The viability, T/C [22] was 79.7%, the viability, T/C [23] was 71.2% and the viability, T/C [24] was 77.8%. For the same molecule, the viability, T/C [25] was 81.6%, the viability, T/C [26] was 91.7% and the viability, T/C [27] was 86.6%. For the same molecule, the viability, T/C [28] was 85.2%, the viability, T/C [29] was 79.1% and the viability, T/C [30] was 59.9%. It also gave a viability, T/C [31] of 81.7%, a viability, T/C [32] of 65.7% and a viability, T/C [33] of 71.5%. The viability, T/C [34] was 64.5%, the viability, T/C [35] was 64.6% and the viability, T/C [36] was 36.3%.

CC1COCCN1c1cc(-c2ccnn2C)c2ccnc(-c3ccn[nH]3)c2n1 (centres undefined) + CN(C)c1ccc(Nc2c3ccc(NC(=O)CCN4CCCC4)cc3nc3cc(NC(=O)CCN4CCCC4)ccc23)cc1 showed an IC50 (second compound 0.0316 µM) of 92.9 nM, an IC50 (second compound 0.1 µM) of 117 nM and an IC50 (second compound 0.316 µM) of 111 nM. The IC50 (second compound 1 µM) was 89.8 nM, the IC50 (second compound 3.16 µM) was 70.2 nM and the IC50 (second compound 10 µM) was 58 nM. It also gave a viability, T/C [1] of 83.6%, a viability, T/C [2] of 47.7% and a viability, T/C [3] of 17%. The viability, T/C [4] was 11.2%, the viability, T/C [5] was 10.4% and the viability, T/C [6] was 11.1%. The viability, T/C [7] was 84.2%, the viability, T/C [8] was 54.9% and the viability, T/C [9] was 18.7%. The viability, T/C [10] was 11.8%, the viability, T/C [11] was 10.7% and the viability, T/C [12] was 8.57%. It also gave a viability, T/C [13] of 81.2%, a viability, T/C [14] of 52.9% and a viability, T/C [15] of 20.2%. For the same molecule, the viability, T/C [16] was 10.3%, the viability, T/C [17] was 9.46% and the viability, T/C [18] was 10.1%. It also gave a viability, T/C [19] of 87.5%, a viability, T/C [20] of 45.9% and a viability, T/C [21] of 23.8%. It also gave a viability, T/C [22] of 12.3%, a viability, T/C [23] of 11.4% and a viability, T/C [24] of 9.79%. For the same molecule, the viability, T/C [25] was 64.7%, the viability, T/C [26] was 43.5% and the viability, T/C [27] was 17.4%. The viability, T/C [28] was 12.6%, the viability, T/C [29] was 10.6% and the viability, T/C [30] was 11.3%. For the same molecule, the viability, T/C [31] was 61.1%, the viability, T/C [32] was 39.8% and the viability, T/C [33] was 23.9%. It also gave a viability, T/C [34] of 13.3%, a viability, T/C [35] of 11.4% and a viability, T/C [36] of 9.08%.
